In patent publication US11919902B2, “Aryl-bipyridine amine derivatives as phosphatidylinositol phosphate kinase inhibitors” (HiberCell, Inc., priority 2017, dated 2024) one finds IC50 data, which are given here for 21 compounds.

SMILES strings stand for the structures.

Assay [1] deals with T1, PIP4K2A (full length protein, SignalChem) (Homo sapiens, UniProt P48426).
T1 construct: 4 nM PIP4K2A (full length protein, SignalChem); purchased SignalChem
T1 sequence (P48426 1-406): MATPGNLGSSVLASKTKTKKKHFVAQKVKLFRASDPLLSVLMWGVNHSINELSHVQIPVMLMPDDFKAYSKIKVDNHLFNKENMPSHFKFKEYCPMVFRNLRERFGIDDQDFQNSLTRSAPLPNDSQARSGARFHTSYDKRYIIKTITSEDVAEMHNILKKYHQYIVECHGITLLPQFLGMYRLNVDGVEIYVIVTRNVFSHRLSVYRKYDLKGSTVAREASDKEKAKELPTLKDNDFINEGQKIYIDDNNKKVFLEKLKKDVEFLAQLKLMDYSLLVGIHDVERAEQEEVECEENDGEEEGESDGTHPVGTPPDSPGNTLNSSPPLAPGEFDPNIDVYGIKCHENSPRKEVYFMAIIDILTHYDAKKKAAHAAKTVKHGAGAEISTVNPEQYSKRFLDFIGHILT
The assay can be described thus: Kinase Assay PIP4K2 A (Sprint); ADP-Glo biochemical assay. Conditions: Table 2; compounds listed under IC50 range headings. The method in brief: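 ADP-Glo luminescence detected ADP after a 1 h RT reaction started with 60 μM ATP solution. Before that, full-length PIP4K2A (4 nM in mix) with 100 μM PI(5)P diC8 was pre-incubated 15 min with compounds in MOPS buffer pH 7.2, 25 mM MgCl2, 0.005% Tween 20. IC50 derived from % inhibition relative to DMSO over 10 three-fold concentrations.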
For orientation: ADP-Glo turns the ADP formed in a reaction into a luminescent signal.

The target of a further assay is T2, GST tagged PIP4KtypeIIA (Homo sapiens, UniProt P48426).
T2 construct: made in house; host or cells: E. coli
T2 sequence (P48426 1-406): T1 sequence (P48426 1-406)
The experiment in a line: ADP-glo kinase assay PIP4K 2A (PIP4KtypeIIA inhibition assay). The format is biochemical. Particulars: Table 3; compounds listed under IC50 range headings; 10 uM ATP, 0.5 nM PIP4KIIA. In short, it runs like this: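 Read-out was ADP-Glo luminescence converted to μM ADP, with IC50 plotted as % of no-inhibitor activity against log concentration. Reactions contained 10 μM ATP, 80 μM PI5P with DOPE carrier, and 0.5 nM GST-tagged PIP4KIIA (E. coli-expressed) in pH 7.3 HEPES/MgCl2 buffer with 5% DMSO. Enzyme and compound (≤4.8 μM) were preincubated 1 h at 27 °C before the 1 h reaction.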

A further assay has as its target T3, GST tagged PIP4KtypeIIB (Homo sapiens, UniProt P78356).
T3 construct: made in house; host or cells: E. coli
T3 sequence (P78356 1-416): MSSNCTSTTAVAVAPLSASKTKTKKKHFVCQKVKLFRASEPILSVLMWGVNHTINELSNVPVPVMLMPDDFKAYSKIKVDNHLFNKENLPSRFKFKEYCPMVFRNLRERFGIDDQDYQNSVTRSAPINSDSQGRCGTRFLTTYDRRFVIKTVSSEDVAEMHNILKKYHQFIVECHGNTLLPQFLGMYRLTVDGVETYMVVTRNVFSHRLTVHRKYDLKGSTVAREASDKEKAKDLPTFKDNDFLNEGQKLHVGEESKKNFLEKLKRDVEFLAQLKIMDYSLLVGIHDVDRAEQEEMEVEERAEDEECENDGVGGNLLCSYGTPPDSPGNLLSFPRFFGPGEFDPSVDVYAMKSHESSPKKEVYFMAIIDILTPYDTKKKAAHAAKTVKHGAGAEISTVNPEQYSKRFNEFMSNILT
The experiment in a line: Trans-FI P kinase assay PIP4K2B (PIP4KtypeIIB inhibition assay). In kind it is biochemical. Conditions: Table 4; compounds listed under IC50 range headings; 100 uM GTP, 5 nM PIP4KIIB; read-out: Trans-FI P kinase assays: PIP4K2B IC50. In short, it runs like this:
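Transcreener FI fluorescence, converted to GDP by calibration, tracked product from 5 nM E. coli-expressed GST-PIP4KIIB acting on 80 uM PI5P (DOPE carrier) with 100 uM GTP. Compound (top 4.8 uM final, 5% DMSO) was preincubated 1 h at 27 C before the 2 h reaction; IC50 fitted from residual activity.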

For `CCOC(=O)c1cc2c(-c3cncc(-c4ccc(N5CCCC5=O)cc4)c3)ccnc2[nH]1` [Example 162, ethyl 4-(5-(4-(2-oxopyrrolidin-1-yl)phenyl)pyridin-3-yl)-1H-pyrrolo[2,3-b]pyridine-2-carboxylate], the IC50 in assay [1] was in the range of 5 to 100 nM; against GST tagged PIP4KtypeIIA it was 100 to 1000 nM; on GST tagged PIP4KtypeIIB, 10 to 100 nM.
The matching figures for `CN(C)C(=O)c1ccc(-c2cc(-c3ccnc4[nH]ccc34)cnc2N)nc1` [Example 21, 2′-amino-N,N-dimethyl-5′-(1H-pyrrolo[2,3-b]pyridin-4-yl)-[2,3′-bipyridine]-5-carboxamide]: 100 to 1000 nM, 100 to 1000 nM and 100 to 1000 nM.
As to `CNC(=O)c1cc2c(-c3cnc(N)c(-c4ccc(N5CCCC5=O)cc4)c3)ccnc2o1` [Example 85, 4-(6-amino-5-(4-(2-oxopyrrolidin-1-yl)phenyl)pyridin-3-yl)-N-methylfuro[2,3-b]pyridine-2-carboxamide], the IC50 in assay [1] is 1 to 5 nM; against GST tagged PIP4KtypeIIA it was 10 to 100 nM; at GST tagged PIP4KtypeIIB, 1 to 10 nM.
Regarding `Cc1cc(N2CCCC2=O)ccc1-c1cncc(-c2ccnc3[nH]c(C(=O)N(C)C)cc23)c1` [Example 169, N,N-dimethyl-4-(5-(2-methyl-4-(2-oxopyrrolidin-1-yl)phenyl)pyridin-3-yl)-1H-pyrrolo[2,3-b]pyridine-2-carboxamide], the IC50 in assay [1] is 100 to 1000 nM; against GST tagged PIP4KtypeIIA it was 1000 to 2500 nM; on GST tagged PIP4KtypeIIB, 100 to 1000 nM.
On to `COCCNC(=O)c1cc2c(-c3cnc(N)c(-c4ccc(N5CCCC5=O)cc4)c3)ccnc2o1` [Example 90, 4-(6-amino-5-(4-(2-oxopyrrolidin-1-yl)phenyl)pyridin-3-yl)-N-(2-methoxyethyl)furo[2,3-b]pyridine-2-carboxamide], for which the 50% inhibitory concentration (IC50) fell in the range of 5 to 100 nM in assay [1], 10 to 100 nM against GST tagged PIP4KtypeIIA and 1 to 10 nM at GST tagged PIP4KtypeIIB.
The matching figures for `CN(C)C(=O)c1ccc(-c2cc(-c3cnc4c(c3)c(-c3cncnc3)nn4C)cnc2N)nc1` [Example 124, 2′-amino-N,N-dimethyl-5′-(1-methyl-3-(pyrimidin-5-yl)-1H-pyrazolo[3,4-b]pyridin-5-yl)-[2,3′-bipyridine]-5-carboxamide]: 1000 to 2500 nM, greater than 5000 nM and greater than 5000 nM.
For the compound `O=C1CCCN1c1ccc(-c2cncc(-c3c[nH]c(=O)c4[nH]ncc34)c2)cc1` [Example 74, 4-(5-(4-(2-oxopyrrolidin-1-yl)phenyl)pyridin-3-yl)-1,6-dihydro-7H-pyrazolo[3,4-c]pyridin-7-one], the IC50 in assay [1] is 5 to 100 nM; against GST tagged PIP4KtypeIIA, 100 to 1000 nM; on GST tagged PIP4KtypeIIB it was 100 to 1000 nM.
`O=C1CCCN1c1ccc(-c2cncc(-c3ccnc4[nH]ccc34)c2)cc1` [Example 58, 1-(4-(5-(1H-pyrrolo[2,3-b]pyridin-4-yl)pyridin-3-yl)phenyl)pyrrolidin-2-one]: the IC50 in assay [1] lay in the range of 5 to 100 nM; on GST tagged PIP4KtypeIIA, 2500 to 5000 nM; at GST tagged PIP4KtypeIIB, 100 to 1000 nM.
Regarding `Cn1cc(-c2cncc(-c3ccc(N4CCCC4=O)cc3)c2)ccc1=O` [Example 37, 1-methyl-5′-(4-(2-oxopyrrolidin-1-yl)phenyl)-[3,3′-bipyridin]-6(1H)-one], the IC50 in assay [1] is 2500 to 5000 nM; at GST tagged PIP4KtypeIIA, greater than 5000 nM; on GST tagged PIP4KtypeIIB, greater than 5000 nM.
`CN(C)C(=O)c1ccc(-c2cc(-c3ccnc4cc(N(C)C)ccc34)cnc2N)nc1` [Example 110, 2′-amino-5′-(7-(dimethylamino)quinolin-4-yl)-N,N-dimethyl-[2,3′-bipyridine]-5-carboxamide]: the IC50 (in assay [1]; against GST tagged PIP4KtypeIIA; on GST tagged PIP4KtypeIIB) was 100 to 1000 nM each time.
Regarding `Cn1cc(-c2cncnc2)c2cc(-c3cncc(-c4ccc(N5CCCC5=O)cc4)c3)cnc21` [Example 176, 1-(4-(5-(1-methyl-3-(pyrimidin-5-yl)-1H-pyrrolo[2,3-b]pyridin-5-yl)pyridin-3-yl)phenyl)pyrrolidin-2-one], the values for the IC50 (in assay [1]; on GST tagged PIP4KtypeIIA; at GST tagged PIP4KtypeIIB) were 5 to 100 nM, 100 to 1000 nM and 1000 to 2500 nM, respectively.
For `Cc1cnc2[nH]cc(-c3cncc(-c4ccc(N5CCCC5=O)cc4)c3)c2c1` [Example 31, 1-(4-(5-(5-methyl-1H-pyrrolo[2,3-b]pyridin-3-yl)pyridin-3-yl)phenyl)pyrrolidin-2-one], the IC50 in assay [1] was in the range of 5 to 100 nM; at GST tagged PIP4KtypeIIA, 10 to 100 nM; on GST tagged PIP4KtypeIIB it was 100 to 1000 nM.
Regarding `COc1ncc(-c2cnc(N)c(-c3ccc(N4CCCC4=O)cc3)c2)c2cn[nH]c12` [Example 258, 1-(4-(2-amino-5-(7-methoxy-2H-pyrazolo[3,4-c]pyridin-4-yl)pyridin-3-yl)phenyl)pyrrolidin-2-one], the IC50 in assay [1] lay in the range of 5 to 100 nM; against GST tagged PIP4KtypeIIA it was 100 to 1000 nM; at GST tagged PIP4KtypeIIB, 100 to 1000 nM.
On to `Nc1ncc(Br)cc1-c1ccc(N2CCCC2=O)cn1` [Example 22, 1-(2′-amino-5′-bromo-[2,3′-bipyridin]-5-yl)pyrrolidin-2-one], for which the values for the IC50 (in assay [1]; against GST tagged PIP4KtypeIIA; at GST tagged PIP4KtypeIIB) were less than 5000 nM, greater than 5000 nM and greater than 5000 nM, respectively.
In the case of `CN(C)C(=O)c1ccc(-c2cc(-c3ccnc4[nH]c(C(=O)N5CCOCC5)cc34)cnc2N)nc1` [Example 128, 2′-amino-N,N-dimethyl-5′-(2-(morpholine-4-carbonyl)-1H-pyrrolo[2,3-b]pyridin-4-yl)-[2,3′-bipyridine]-5-carboxamide], the IC50 fell in the range of 100 to 1000 nM in assay [1], 1000 to 2500 nM against GST tagged PIP4KtypeIIA and 100 to 1000 nM on GST tagged PIP4KtypeIIB.
For `O=C1Cc2c(-c3cncc(-c4ccc(N5CCCC5=O)cc4)c3)ccnc2N1` [Example 42, 4-(5-(4-(2-oxopyrrolidin-1-yl)phenyl)pyridin-3-yl)-1,3-dihydro-2H-pyrrolo[2,3-b]pyridin-2-one], the values for the IC50 (in assay [1]; at GST tagged PIP4KtypeIIA; on GST tagged PIP4KtypeIIB) were 100 to 1000 nM, 2500 to 5000 nM and 1000 to 2500 nM, respectively.
The matching figures for `CN(CC1CCCNC1)C(=O)c1ccc(-c2cncc(-c3ccncc3)c2)cc1` (stereo not drawn) [Example 180, 4-([3,4′-bipyridin]-5-yl)-N-methyl-N-(piperidin-3-ylmethyl)benzamide]: less than 5000 nM, greater than 5000 nM and greater than 5000 nM.
For the compound `O=C1CCCN1c1ccc(-c2cncc(-c3cnc4nccn4c3)c2)cc1` [Example 275, 1-(4-(5-(imidazo[1,2-a]pyrimidin-6-yl)pyridin-3-yl)phenyl)pyrrolidin-2-one], the results for the IC50 (in assay [1]; on GST tagged PIP4KtypeIIA; on GST tagged PIP4KtypeIIB) were 100 to 1000 nM, 100 to 1000 nM and 2500 to 5000 nM, respectively.
Take `CN(C)C(=O)c1ccc(-c2cc(-c3ccnc(CNC(=O)CCc4cccc(NC(=O)OC(C)(C)C)c4)c3)cnc2N)nc1` [Example 193, tert-butyl (3-(3-(((2′-amino-5-(dimethylcarbamoyl)-[2,3′:5′,4″-terpyridin]-2″-yl)methyl)amino)-3-oxopropyl)phenyl)carbamate]: the IC50 was 1000 to 2500 nM in assay [1], greater than 5000 nM against GST tagged PIP4KtypeIIA and 2500 to 5000 nM on GST tagged PIP4KtypeIIB.
Take `CC(C)n1cnnc1-c1ccc(-c2cncc(-c3ccnc4c3cc3n4CCN(C)C3=O)c2)cc1` [Example 384, 4-(5-(4-(4-isopropyl-4H-1,2,4-triazol-3-yl)phenyl)pyridin-3-yl)-7-methyl-8,9-dihydropyrido[3′,2′:4,5]pyrrolo[1,2-a]pyrazin-6(7H)-one]: the figures for the IC50 (in assay [1]; on GST tagged PIP4KtypeIIA; on GST tagged PIP4KtypeIIB) were 100 to 1000 nM, 100 to 1000 nM and 10 to 100 nM, respectively.
Take `COC(=O)c1cc2c(-c3cncc(-c4ccc(N5CCCC5=O)cc4)c3C)ccnc2[nH]1` [Example 175, methyl 4-(4-methyl-5-(4-(2-oxopyrrolidin-1-yl)phenyl)pyridin-3-yl)-1H-pyrrolo[2,3-b]pyridine-2-carboxylate]: the results for the IC50 (in assay [1]; against GST tagged PIP4KtypeIIA; on GST tagged PIP4KtypeIIB) were 5 to 100 nM, 10 to 100 nM and 10 to 100 nM, respectively.

One may read the IC50 as the concentration that gives 50% inhibition.
